Read-outs that look alike come from different tables or passages of the source.
Biological target: T1, Taf3-PHD (residues 857–924) (Mus musculus, UniProt Q5HZG4)
T1 construct: PHD finger of Taf3 (residues 857–924) in NMR buffer; GST (N, cleaved yes); made in house; host or cells: E. coli BL21(DE3), M9 minimal medium (13C/15N)
T1 sequence (Q5HZG4 857-924): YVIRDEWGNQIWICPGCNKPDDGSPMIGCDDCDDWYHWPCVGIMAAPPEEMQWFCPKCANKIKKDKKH
Test: NMR titration line shape analysis (TITAN), wild-type Taf3-PHD
Format: binding
Method: The ^13C- and ^15N-labelled Taf3-PHD NMR samples were purified as described above, with minor differences. A single colony of freshly transformed BL21(DE3) E. coli was grown in a synthetic M9 minimal medium (6.0 g/l Na2HPO4·2H2O, 3.0 g/l KH2PO4, 0.5 g/l NaCl, 25 mg/l MgSO4, 290 μg/l CaCl2, 1 μg/l FeSO4·7H2O, 270 μg/l ZnCl2, and 5 mg/l thiamine) containing 2.0 g/l ^13C-glucose as the only carbon source and 0.5 g/l ^15NH4Cl as the sole nitrogen source. Protein expression, lysis, and loading to Glutathione Sepharose™ column were performed as described above. The GST-tag was removed through on-column thrombin digestion by loading excess thrombin (SERVA) in wash buffer followed by overnight digestion at 4°C. The cleaved PHD moiety with a […] N-terminal extension (Gly–Ser–His–Met–Ala–Met–Ala) remaining from the thrombin cleavage site was collected from the flow-through and further purified in a Mono Q™ 10/100 GL as before and subsequently loaded to a Superdex-75 HiLoad 16/600 gel filtration column in NMR buffer (20 mM KPi, pH 7.0, 150 mM KCl, 10 μM ZnCl2) (Supplementary Fig. S1).
All data were recorded at 298 K on a Bruker Avance III HD 900 MHz spectrometer equipped with a cryoprobe, unless noted otherwise. Sample for assignment verification contained 0.3 mM ^13C- and ^15N-labelled PHD finger of Taf3 (residues 857–924) in NMR buffer (20 mM KPi, pH 7.0, 150 mM KCl, 10 μM ZnCl2, 0.01% NaN3, 10% D2O) in a 5-mm NMR tube. Samples for peptide interaction studies contained 0.19 mM ^13C- and ^15N-labelled PHD in NMR buffer in 3-mm NMR tubes. Lyophilized peptides were dissolved in NMR buffer including 1 mM sodium 3-(trimethylsilyl)tetradeuteriopropanionate (TSP) into 20 mM stock solutions. Upon dilution to 1 mM, all peptide solutions were at pH 7.0 in NMR buffer. Peptide concentrations were determined by comparing the integral of the Thr methyl signal (from T3, T6, and T11, total nine protons) to that of TSP using a quantitative 1D experiment (recycle delay 60 s) recorded at a Bruker Avance III 600 MHz spectrometer. Saturated complexes with H3K4me1/H3K4me2/H3K4me3 peptides with and without H3Q5ser were made by adding peptide to a 0.7 mM final concentration (3.6 equiv.). […] Additional samples were prepared using 30%, 50%, 80%, and 160% equiv. of peptide. All spectra were recorded and processed using Bruker Topspin and analysed using NMR-FAM Sparky and Poky.
For the H3K4me2 complexes, the resonance of G879 was excluded due to overlap and that of K875 was included. Spectra were processed using NMRPipe using exponential line broadening of 10/15 Hz in the direct/indirect dimension of the free induction decay before Fourier transform. Data were fit against a 1:1 binding model that also optimizes the ligand concentration to compensate for concentration errors. Fitting assumed an HSQC experiment using 1.2 ms for the first zz-filter delays and an additional 0.6 ms evolution at the start and end of t1 that accommodated the echo/anti-echo gradient. The average koff value and standard error from a bootstrap analysis based on 100 replicas are reported. The 95% confidence limits were estimated using a grid search fixing koff allowing for an ∼3% increase in the final residuals as based on the F-statistic given the degrees of freedom. For each koff value, the KD for the H3K4me3 peptide was restrained to fall within 100 and 400 nM to enforce compatibility to previous reported affinity to avoid unrealistically high fitted KD values at higher koff values. Of note, the quality of the fit at the confidence limit edges is visibly worse than the best fit, particularly for the high koff side. For the H3K4me3Q5ser peptide, no restraint on KD was necessary. For the H3K4me2 peptides, the KD was restrained to 5 μM maximum. Without these upper bounds for KD, slightly wider confidence limits for koff are found.

| koff (NMR line shape fit (TITAN), 298 K, 20 mM KPi, pH 7.0, 150 mM KCl, 1:1 model, average ± standard error from bootstrap, 100 replicas, read-out: koff) [s⁻¹] | koff (NMR line shape fit (TITAN), 298 K, pH 7.0, grid search, read-out: koff 95% confidence limits) [s⁻¹] | Structure (SMILES) | koff (pH 7) [s⁻¹] | koff (pH 7, read-out: koff 95% confidence limits) [s⁻¹] |
| --- | --- | --- | --- | --- |
|  |  | C[C@H](N)C(=O)N[C@@H](CCCNC(=N)N)C(=O)N[C@H](C(=O)N[C@@H](CCCC[N+](C)(C)C)C(=O)N[C@@H](CCC(=O)NCCc1c[nH]c2ccc(O)cc12)C(=O)N[C@H](C(=O)N[C@@H](C)C(=O)N[C@@H](CCCNC(=N)N)C(=O)N[C@@H](CCCCN)C(=O)N[C@@H](CO)C(=O)N[C@H](C(=O)NCC(N)=O)[C@@H](C)O)[C@@H](C)O)[C@@H](C)O [H3K4me3Q5ser] | 16.8 ± 0.5 | 12 to 22 |
| 48.8 ± 1 | 42 to 56 | C[C@H](N)C(=O)N[C@@H](CCCNC(=N)N)C(=O)N[C@H](C(=O)N[C@@H](CCCC[N+](C)(C)C)C(=O)N[C@@H](CCC(N)=O)C(=O)N[C@H](C(=O)N[C@@H](C)C(=O)N[C@@H](CCCNC(=N)N)C(=O)N[C@@H](CCCCN)C(=O)N[C@@H](CO)C(=O)N[C@H](C(=O)NCC(N)=O)[C@@H](C)O)[C@@H](C)O)[C@@H](C)O [H3K4me3] |  |  |
